From the supplement of paper PMC10307832

Experiments:
Assay in all cases: relative viability (nuclei count vs DMSO), 5 days (fraction); higher = more cells survive
NCI-H1395 = system: NCI-H1395
Procedure, shortened: (§1)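 Lung cancer cell lines were seeded in 1536-well plates and dosed by pin tool the next day, with either a single drug or a fixed anchor-drug dose combined with five library-drug doses (not always all listed) spaced in √10 steps. Five days later, one step fixed the cells and stained their nuclei (final 0.05% Triton X-100, 1% formaldehyde, 1 ug/ml Hoechst), and nuclei were counted on 4× images. Relative viability is the nuclei count in treated wells divided by the count in vehicle wells, and each value is the median of duplicate plates.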

NCI-H460 = system: NCI-H460
Procedure, shortened: as §1

NCI-H2085 = system: NCI-H2085
Procedure, shortened: as §1

NCI-H441 = system: NCI-H441
Procedure, shortened: as §1

NCI-H1437 = system: NCI-H1437
Procedure, shortened: as §1

LU99A = system: LU99A
Procedure, shortened: as §1

NCI-H1651 = system: NCI-H1651
Procedure, shortened: as §1

HCC-44 = system: HCC-44
Procedure, shortened: as §1

NCI-H838 = system: NCI-H838
Procedure, shortened: as §1

NCI-H1755 = system: NCI-H1755
Procedure, shortened: as §1

NCI-H2023 = system: NCI-H2023
Procedure, shortened: as §1

NCI-H1734 = system: NCI-H1734
Procedure, shortened: as §1

LOU-NH91 = system: LOU-NH91
Procedure, shortened: as §1

EKVX = system: EKVX
Procedure, shortened: as §1

BEN = system: BEN
Procedure, shortened: as §1

NCI-H1650 = system: NCI-H1650
Procedure, shortened: as §1

HCC-366 = system: HCC-366
Procedure, shortened: as §1

NCI-H1355 = system: NCI-H1355
Procedure, shortened: as §1

NCI-H1975 = system: NCI-H1975
Procedure, shortened: as §1

CAL-12T = system: CAL-12T
Procedure, shortened: as §1

NC(=O)Nc1cc(-c2cccc(F)c2)sc1C(=O)N[C@H]1CCCNC1 [AZD7762] + CC1(C)CCC(c2ccc(Cl)cc2)=C(CN2CCN(c3ccc(C(=O)NS(=O)(=O)c4ccc(N[C@H](CCN5CCOCC5)CSc5ccccc5)c(S(=O)(=O)C(F)(F)F)c4)cc3)CC2)C1 [Navitoclax] (partner 0.5 µM)
relative viability (NCI-H1395; first compound 0.01 µM): 1.27 | relative viability (NCI-H1395; first compound 0.03162 µM): 1.66 | relative viability (NCI-H1395; first compound 0.1 µM): 1.41 | relative viability (NCI-H1395; first compound 0.3162 µM): 0.634 | relative viability (NCI-H1395; first compound 1 µM): 0.408 | relative viability (NCI-H460; first compound 0.01 µM): 1.25 | relative viability (NCI-H460; first compound 0.03162 µM): 1.15 | relative viability (NCI-H460; first compound 0.1 µM): 1.11 | relative viability (NCI-H460; first compound 0.3162 µM): 0.861 | relative viability (NCI-H460; first compound 1 µM): 0.0845 | relative viability (NCI-H2085; first compound 0.01 µM): 1.27 | relative viability (NCI-H2085; first compound 0.03162 µM): 1.11 | relative viability (NCI-H2085; first compound 0.1 µM): 1.24 | relative viability (NCI-H2085; first compound 0.3162 µM): 1.25 | relative viability (NCI-H2085; first compound 1 µM): 1.03 | relative viability (NCI-H441; first compound 0.01 µM): 0.803 | relative viability (NCI-H441; first compound 0.03162 µM): 0.684 | relative viability (NCI-H441; first compound 0.1 µM): 0.721 | relative viability (NCI-H441; first compound 0.3162 µM): 0.479 | relative viability (NCI-H441; first compound 1 µM): 1.1 | relative viability (NCI-H1437; first compound 0.01 µM): 1.09 | relative viability (NCI-H1437; first compound 0.03162 µM): 1.04 | relative viability (NCI-H1437; first compound 0.1 µM): 1.07 | relative viability (NCI-H1437; first compound 0.3162 µM): 1.08 | relative viability (NCI-H1437; first compound 1 µM): 1.05 | relative viability (LU99A; first compound 0.01 µM): 0.81 | relative viability (LU99A; first compound 0.03162 µM): 0.869 | relative viability (LU99A; first compound 0.1 µM): 0.718 | relative viability (LU99A; first compound 0.3162 µM): 0.665 | relative viability (LU99A; first compound 1 µM): 0.514 | relative viability (NCI-H1651; first compound 0.01 µM): 1.16 | relative viability (NCI-H1651; first compound 0.03162 µM): 0.964 | relative viability (NCI-H1651; first compound 0.1 µM): 0.922 | relative viability (NCI-H1651; first compound 0.3162 µM): 0.855 | relative viability (NCI-H1651; first compound 1 µM): 0.283 | relative viability (HCC-44; first compound 0.01 µM): 1.1 | relative viability (HCC-44; first compound 0.03162 µM): 0.933 | relative viability (HCC-44; first compound 0.1 µM): 1.01 | relative viability (HCC-44; first compound 0.3162 µM): 0.901 | relative viability (HCC-44; first compound 1 µM): 1.01 | relative viability (NCI-H838; first compound 0.01 µM): 1.19 | relative viability (NCI-H838; first compound 0.03162 µM): 1.15 | relative viability (NCI-H838; first compound 0.1 µM): 1.09 | relative viability (NCI-H838; first compound 0.3162 µM): 1.03 | relative viability (NCI-H838; first compound 1 µM): 0.576 | relative viability (NCI-H1755; first compound 0.01 µM): 1.03 | relative viability (NCI-H1755; first compound 0.03162 µM): 1.01 | relative viability (NCI-H1755; first compound 0.1 µM): 1.08 | relative viability (NCI-H1755; first compound 0.3162 µM): 1.08 | relative viability (NCI-H1755; first compound 1 µM): 0.622 | relative viability (NCI-H2023; first compound 0.01 µM): 0.992 | relative viability (NCI-H2023; first compound 0.03162 µM): 0.771 | relative viability (NCI-H2023; first compound 0.1 µM): 0.663 | relative viability (NCI-H2023; first compound 0.3162 µM): 0.287 | relative viability (NCI-H2023; first compound 1 µM): 0.118 | relative viability (NCI-H1734; first compound 0.01 µM): 0.995 | relative viability (NCI-H1734; first compound 0.03162 µM): 0.892 | relative viability (NCI-H1734; first compound 0.1 µM): 0.978 | relative viability (NCI-H1734; first compound 0.3162 µM): 0.891 | relative viability (NCI-H1734; first compound 1 µM): 0.606 | relative viability (LOU-NH91; first compound 0.01 µM): 0.753 | relative viability (LOU-NH91; first compound 0.03162 µM): 0.673 | relative viability (LOU-NH91; first compound 0.1 µM): 0.619 | relative viability (LOU-NH91; first compound 0.3162 µM): 0.562 | relative viability (LOU-NH91; first compound 1 µM): 0.4 | relative viability (EKVX; first compound 0.01 µM): 0.954 | relative viability (EKVX; first compound 0.03162 µM): 0.863 | relative viability (EKVX; first compound 0.1 µM): 0.918 | relative viability (EKVX; first compound 0.3162 µM): 0.596 | relative viability (EKVX; first compound 1 µM): 0.574 | relative viability (BEN; first compound 0.01 µM): 0.0635 | relative viability (BEN; first compound 0.03162 µM): 0.0616 | relative viability (BEN; first compound 0.1 µM): 0.0641 | relative viability (BEN; first compound 0.3162 µM): 0.0656 | relative viability (BEN; first compound 1 µM): 0.0695 | relative viability (NCI-H1650; first compound 0.01 µM): 1.33 | relative viability (NCI-H1650; first compound 0.03162 µM): 1.42 | relative viability (NCI-H1650; first compound 0.1 µM): 1.22 | relative viability (NCI-H1650; first compound 0.3162 µM): 0.917 | relative viability (NCI-H1650; first compound 1 µM): 0.327 | relative viability (HCC-366; first compound 0.01 µM): 1.1 | relative viability (HCC-366; first compound 0.03162 µM): 1.09 | relative viability (HCC-366; first compound 0.1 µM): 1.06 | relative viability (HCC-366; first compound 0.3162 µM): 0.687 | relative viability (HCC-366; first compound 1 µM): 0.165 | relative viability (NCI-H1355; first compound 0.01 µM): 0.879 | relative viability (NCI-H1355; first compound 0.03162 µM): 1.07 | relative viability (NCI-H1355; first compound 0.1 µM): 0.946 | relative viability (NCI-H1355; first compound 0.3162 µM): 1.01 | relative viability (NCI-H1355; first compound 1 µM): 0.914 | relative viability (NCI-H1975; first compound 0.01 µM): 1.03 | relative viability (NCI-H1975; first compound 0.03162 µM): 0.953 | relative viability (NCI-H1975; first compound 0.1 µM): 1.11 | relative viability (NCI-H1975; first compound 0.3162 µM): 0.938 | relative viability (NCI-H1975; first compound 1 µM): 0.676 | relative viability (CAL-12T; first compound 0.01 µM): 1.23 | relative viability (CAL-12T; first compound 0.03162 µM): 1.18 | relative viability (CAL-12T; first compound 0.1 µM): 1.24 | relative viability (CAL-12T; first compound 0.3162 µM): 1.09 | relative viability (CAL-12T; first compound 1 µM): 0.169
